Format in all cases: cell-based
One experiment concerns TCCS cells. As to the kind of experiment: human CML cell proliferation inhibition. The settings on record: 72 hours, Cell Counting Kit-8. In short, it runs like this: (§1)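 Growth inhibition over 72 h at 37 °C in Bcr-Abl (TCCS, KOPM28) or T315I-Bcr-Abl (T315I-TCCS, T315I-KOPM28) human CML cells, 1×10^4 cells/well. Nine 5-fold dilutions gave final 0 to 10 μM, with DMSO as control. GI50 was derived from CCK-8 A450 as percent of vehicle.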
(Formazan colour is commonly taken as a measure of viable cells.)

The test system of the next experiment is T315I-TCCS cells. As to the kind of experiment: human CML cell proliferation inhibition. The settings on record: 72 hours, Cell Counting Kit-8. The method, boiled down:
as §1

For the next experiment, the system named is T315I-KOPM28 cells. In words: human CML cell proliferation inhibition. The note with it: 72 hours, Cell Counting Kit-8. The method, boiled down:
as §1

The next experiment has as its system KOPM28 cells. As to the kind of experiment: human CML cell proliferation inhibition. The note with it: 72 hours, Cell Counting Kit-8. The method, boiled down:
as §1

In another experiment the test system is T315I-Bcr-Abl (Ba/F3). In words: Ba/F3 cell proliferation inhibition. The settings on record: BaF3; 72 hours, Cell Counting Kit-8. The method, boiled down: (§2)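 GI50 derived from CCK-8 absorbance at 450 nm (2 h development), expressed relative to DMSO vehicle. Cells (parental or T315I-Bcr-Abl Ba/F3, 1×10^4/well) received nine threefold-diluted concentrations, final 0 to 10 μM, for 72 h at 37 °C.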

Another experiment concerns Parental (Ba/F3). In words: Ba/F3 cell proliferation inhibition. The note with it: BaF3; 72 hours, Cell Counting Kit-8. In short, it runs like this: as §2

As a reminder, the GI50 is the concentration at which growth is held to half of that of the control.

Turning to `Cc1cc(F)c(C(=O)Nc2cc(CN3CCN(C(C)C)CC3)cc(C(C)(C)C#N)c2)cc1C#Cc1cnc2c(Nc3cnn(C)c3)cccn12` [Example 33, N-(3-(2-cyanopropan-2-yl)-5-((4-isopropylpiperazin-1-yl)methyl)phenyl)-2-fluoro-4-methyl-5-((8-((1-methyl-1H-pyrazol-4-yl)amino)imidazo[1,2-a]pyridin-3-yl)ethynyl)benzamide], the GI50 was < 10 nM with TCCS cells; 100 nM in the experiment on T315I-TCCS cells; > 100 nM in the experiment with T315I-KOPM28 cells; < 10 nM with KOPM28 cells; 50 to 500 nM with T315I-Bcr-Abl (Ba/F3); 500 to 5000 nM with Parental (Ba/F3).
Consider `Cc1cc(F)c(C(=O)Nc2ccc(CN3CCN(C)C(=O)C3)c(C(C)(C)C#N)c2)cc1C#Cc1cnc2c(Nc3cnn(C)c3)cccn12` [Example 44, N-(3-(2-cyanopropan-2-yl)-4-((4-methyl-3-oxopiperazin-1-yl)methyl)phenyl)-2-fluoro-4-methyl-5-((8-((1-methyl-1H-pyrazol-4-yl)amino)imidazo[1,2-a]pyridin-3-yl)ethynyl)benzamide], for which the 50% growth inhibitory concentration (GI50) is < 10 nM in the experiment on TCCS cells; > 100 nM with T315I-TCCS cells; > 100 nM in the experiment with T315I-KOPM28 cells; < 10 nM in the experiment on KOPM28 cells; 50 to 500 nM in the experiment on T315I-Bcr-Abl (Ba/F3); 500 to 5000 nM with Parental (Ba/F3).
For the molecule `Cc1cc(F)c(C(=O)Nc2cc(OCCCN(C)C)cc(C(F)(F)F)c2)cc1C#Cc1cnc2c(Nc3cn[nH]c3)cccn12` [Example 103, 5-((8-((1H-pyrazol-4-yl)amino)imidazo[1,2-a]pyridin-3-yl)ethynyl)-N-(3-(3-(dimethylamino)propoxy)-5-(trifluoromethyl)phenyl)-2-fluoro-4-methylbenzamide], the GI50 was < 10 nM in the experiment with TCCS cells; 100 nM with T315I-TCCS cells; > 100 nM with T315I-KOPM28 cells; < 10 nM in the experiment on KOPM28 cells; 50 to 500 nM with T315I-Bcr-Abl (Ba/F3); > 5000 nM with Parental (Ba/F3).
As for `Cc1ccc(C(=O)Nc2cc(Oc3ccncc3)cc(C(F)(F)F)c2)c(F)c1C#Cc1cnc2c(Nc3cnn(C)c3)cccn12` [Example 9, 2-fluoro-4-methyl-3-((8-((1-methyl-1H-pyrazol-4-yl)amino)imidazo[1,2-a]pyridin-3-yl)ethynyl)-N-(3-(pyridin-4-yloxy)-5-(trifluoromethyl)phenyl)benzamide], the GI50 was < 10 nM in the experiment on TCCS cells; 100 nM in the experiment on T315I-TCCS cells; 100 nM in the experiment with T315I-KOPM28 cells; < 10 nM in the experiment on KOPM28 cells; < 50 nM in the experiment on T315I-Bcr-Abl (Ba/F3); > 5000 nM in the experiment with Parental (Ba/F3).
Regarding `Cc1cc(F)c(C(=O)Nc2cc(N3CCN(C)CC3)cc(C(F)(F)F)c2)cc1C#Cc1cnc2c(Nc3cn[nH]c3)cccn12` [Example 99, 5-((8-((1H-pyrazol-4-yl)amino)imidazo[1,2-a]pyridin-3-yl)ethynyl)-2-fluoro-4-methyl-N-(3-(4-methylpiperazin-1-yl)-5-(trifluoromethyl)phenyl)benzamide], the GI50 was < 10 nM in the experiment with TCCS cells; 100 nM in the experiment with T315I-TCCS cells; > 100 nM in the experiment with T315I-KOPM28 cells; < 10 nM in the experiment with KOPM28 cells; 50 to 500 nM in the experiment on T315I-Bcr-Abl (Ba/F3); 500 to 5000 nM with Parental (Ba/F3).
With `Cc1cc(F)c(C(=O)Nc2cc(N3CCN(C)C(=O)C3)cc(C(F)(F)F)c2)cc1C#Cc1cnc2c(Nc3cn[nH]c3)cccn12` [Example 100, 5-((8-((1H-pyrazol-4-yl)amino)imidazo[1,2-a]pyridin-3-yl)ethynyl)-2-fluoro-4-methyl-N-(3-(4-methyl-3-oxopiperazin-1-yl)-5-(trifluoromethyl)phenyl)benzamide], the concentration for 50% growth inhibition (GI50) with TCCS cells is < 10 nM; with T315I-TCCS cells it was 100 nM; in the experiment with T315I-KOPM28 cells it was > 100 nM; in the experiment on KOPM28 cells it was < 10 nM; in the experiment on T315I-Bcr-Abl (Ba/F3), 50 to 500 nM; with Parental (Ba/F3) it was > 5000 nM.
On to `Cc1cc(F)c(C(=O)Nc2cc(-c3cccnc3)cc(C(F)(F)F)c2)cc1C#Cc1cnc2c(Nc3cn[nH]c3)cccn12` [Example 98, 5-((8-((1H-pyrazol-4-yl)amino)imidazo[1,2-a]pyridin-3-yl)ethynyl)-2-fluoro-4-methyl-N-(3-(pyridin-3-yl)-5-(trifluoromethyl)phenyl)benzamide], for which the GI50 was < 10 nM in the experiment with TCCS cells; 100 nM with T315I-TCCS cells; > 100 nM in the experiment with T315I-KOPM28 cells; < 10 nM with KOPM28 cells; 50 to 500 nM in the experiment with T315I-Bcr-Abl (Ba/F3); > 5000 nM in the experiment on Parental (Ba/F3).
As for `Cc1cc(F)c(C(=O)Nc2cc(OCCN(C)C)cc(C(F)(F)F)c2)cc1C#Cc1cnc2c(Nc3cnn(C)c3)cccn12` [Example 50, N-(3-(2-(dimethylamino)ethoxy)-5-(trifluoromethyl)phenyl)-2-fluoro-4-methyl-5-((8-((1-methyl-1H-pyrazol-4-yl)amino)imidazo[1,2-a]pyridin-3-yl)ethynyl)benzamide], the GI50 is < 10 nM in the experiment on TCCS cells; 100 nM in the experiment on T315I-TCCS cells; > 100 nM in the experiment with T315I-KOPM28 cells; < 10 nM in the experiment with KOPM28 cells; 50 to 500 nM in the experiment with T315I-Bcr-Abl (Ba/F3); > 5000 nM with Parental (Ba/F3).
On to `Cc1cc(F)c(C(=O)Nc2cc(CN3CCN(CCO)CC3)cc(C(C)(C)C#N)c2)cc1C#Cc1cnc2c(Nc3cnn(C)c3)cccn12` [Example 10, N-(3-(2-cyanopropan-2-yl)-5-((4-(2-hydroxyethyl)piperazin-1-yl)methyl)phenyl)-2-fluoro-4-methyl-5-((8-((1-methyl-1H-pyrazol-4-yl)amino)imidazo[1,2-a]pyridin-3-yl)ethynyl)benzamide], for which the GI50 in the experiment on TCCS cells is < 10 nM; in the experiment on T315I-TCCS cells, 100 nM; in the experiment with T315I-KOPM28 cells, 100 nM; with KOPM28 cells, < 10 nM; in the experiment with T315I-Bcr-Abl (Ba/F3) it was < 50 nM; in the experiment on Parental (Ba/F3), 500 to 5000 nM.
On to `Cc1cc(F)c(C(=O)Nc2cc(CN3CCC(C(F)(F)F)CC3)cc(C(C)(C)C#N)c2)cc1C#Cc1cnc2c(Nc3cnn(C)c3)cccn12` [Example 31, N-(3-(2-cyanopropan-2-yl)-5-((4-(trifluoromethyl)piperidin-1-yl)methyl)phenyl)-2-fluoro-4-methyl-5-((8-((1-methyl-1H-pyrazol-4-yl)amino)imidazo[1,2-a]pyridin-3-yl)ethynyl)benzamide], for which the GI50 in the experiment with TCCS cells was < 10 nM; with T315I-TCCS cells, > 100 nM; with T315I-KOPM28 cells, > 100 nM; with KOPM28 cells, < 10 nM; with T315I-Bcr-Abl (Ba/F3) it was 50 to 500 nM; with Parental (Ba/F3), > 5000 nM.
In the case of `Cc1cc(F)c(C(=O)Nc2ccc(Cn3ccnc3)c(C(F)(F)F)c2)cc1C#Cc1cnc2c(Nc3cnn(C)c3)cccn12` [Example 63, N-(4-((1H-imidazol-1-yl)methyl)-3-(trifluoromethyl)phenyl)-2-fluoro-4-methyl-5-((8-((1-methyl-1H-pyrazol-4-yl)amino)imidazo[1,2-a]pyridin-3-yl)ethynyl)benzamide], the GI50 in the experiment on TCCS cells is < 10 nM; in the experiment with T315I-TCCS cells, > 100 nM; in the experiment with T315I-KOPM28 cells it was > 100 nM; in the experiment on KOPM28 cells it was < 10 nM; with T315I-Bcr-Abl (Ba/F3) it was 500 to 5000 nM; with Parental (Ba/F3), > 5000 nM.
With `Cc1cc(F)c(C(=O)Nc2cc(CN3CCCN(C)CC3)cc(C(F)(F)F)c2)cc1C#Cc1cnc2c(Nc3cnn(C)c3)cccn12` [Example 67, 2-fluoro-4-methyl-N-(3-((4-methyl-1,4-diazepan-1-yl)methyl)-5-(trifluoromethyl)phenyl)-5-((8-((1-methyl-1H-pyrazol-4-yl)amino)imidazo[1,2-a]pyridin-3-yl)ethynyl)benzamide], the concentration for 50% growth inhibition (GI50) in the experiment on TCCS cells is < 10 nM; in the experiment with T315I-TCCS cells, 100 nM; in the experiment on T315I-KOPM28 cells it was 100 nM; with KOPM28 cells, < 10 nM; in the experiment on T315I-Bcr-Abl (Ba/F3), 50 to 500 nM; in the experiment on Parental (Ba/F3), 500 to 5000 nM.
In the case of `Cc1cc(F)c(C(=O)Nc2ccc(CN3CCN(C)C(=O)C3)c(C(C)(C)C#N)c2)cc1C#Cc1cnc2c(Nc3cn[nH]c3)cccn12` [Example 93, 5-((8-((1H-pyrazol-4-yl)amino)imidazo[1,2-a]pyridin-3-yl)ethynyl)-N-(3-(2-cyanopropan-2-yl)-4-((4-methyl-3-oxopiperazin-1-yl)methyl)phenyl)-2-fluoro-4-methylbenzamide], the GI50 in the experiment on TCCS cells was < 10 nM; with T315I-TCCS cells it was > 100 nM; with T315I-KOPM28 cells, > 100 nM; in the experiment with KOPM28 cells it was < 10 nM; in the experiment on T315I-Bcr-Abl (Ba/F3), 50 to 500 nM; with Parental (Ba/F3) it was 500 to 5000 nM.
In the case of `Cc1cc(F)c(C(=O)Nc2cc(Cn3cncn3)cc(C(C)(C)C#N)c2)cc1C#Cc1cnc2c(Nc3cnn(C)c3)cccn12` [Example 38, N-(3-((1H-1,2,4-triazol-1-yl)methyl)-5-(2-cyanopropan-2-yl)phenyl)-2-fluoro-4-methyl-5-((8-((1-methyl-1H-pyrazol-4-yl)amino)imidazo[1,2-a]pyridin-3-yl)ethynyl)benzamide], the GI50 was < 10 nM in the experiment with TCCS cells; < 10 nM in the experiment with T315I-TCCS cells; 100 nM in the experiment with T315I-KOPM28 cells; < 10 nM with KOPM28 cells; < 50 nM in the experiment on T315I-Bcr-Abl (Ba/F3); > 5000 nM with Parental (Ba/F3).
On to `Cc1cn(-c2cc(NC(=O)c3cc(F)c(C)c(C#Cc4cnc5c(Nc6cnn(C)c6)cccn45)c3)cc(C(F)(F)F)c2)cn1` [Example 5, 3-fluoro-4-methyl-N-(3-(4-methyl-1H-imidazol-1-yl)-5-(trifluoromethyl)phenyl)-5-((8-((1-methyl-1H-pyrazol-4-yl)amino)imidazo[1,2-a]pyridin-3-yl)ethynyl)benzamide], for which the GI50 in the experiment on TCCS cells is 100 nM; with T315I-TCCS cells, 100 nM; in the experiment on T315I-KOPM28 cells, 100 nM; in the experiment on KOPM28 cells it was 100 nM; with T315I-Bcr-Abl (Ba/F3) it was < 50 nM; in the experiment with Parental (Ba/F3) it was > 5000 nM.

For the origin of these results see patent US12673945B2, “3-((8-((1H-pyrazol-4-yl)amino)imidazo[1,2-a]pyridin-3-yl)ethinyl)-n-phenylbenzamide derivative, method for preparing same, and pharmaceutical composition containing same as active ingredient for prevention or treatment of cancer” (DAEGU-GYEONGBUK MEDICAL INNOVATION FOUNDATION, priority 2020, dated 2026).
